Laboratory results: patent US11801239B2, “Powder injection of the donepezil semi palmoxiric acid salt, composition containing same and preparation method therefor” (priority 2017, dated 2023)

Key:
[1] = for Appearance observed: dry powder; for Angle of repose: funnel method, arctg (H/r); for fluidity: judged from angle of repose
Protocol: The angle of repose is a common index for evaluating the fluidity of dry powder. When measuring the angle of repose, the funnel is fixed at a suitable height H. The dry powder prepared in Example 1 was placed in a funnel and naturally leaked to form a pile until tip of the cone almost contacts the outlet of the funnel. Then, the radius r of the bottom surface of the cone was measured, and the angle of repose is arctg (H/r).

[2] = measured by a laser granulometer
Protocol: Step 3: 0.2 g of donepezil semi pamoate seed crystals (the preparation method refers to example 4 of patent WO2013078608) were added into the filtrate obtained in step 1 to obtain a solution. Then the filtrate obtained in step 2 was slowly and dropwise added into the above solution at room temperature over 1 hour, slowly stirred for 5-10 hours with an anchor stir bar and filtered.
Step 1 and step 2 are the same as those of powder 1 #. Step 3: 0.2 g of donepezil semi pamoate seed crystals (the preparation method is the same as above) were added into the filtrate obtained in step 1 to obtain a solution. Then the filtrate obtained in step 2 was slowly and dropwise added into the above solution at 4-10° C. over 1 hour, stirred for 1-2 hours at room temperature and filtered.
Step 1 and step 2 are the same as those of powder 1 #. Step 3: 0.2 g of donepezil semi pamoate seed crystals (the preparation method refers to patent WO2013078608) were added into the filtrate obtained in step 1 to obtain a solution. Then the obtained solution was heated to 50-60° C. The filtrate obtained in step 2 was slowly and dropwise added into the above solution. After completion of the addition, the reaction solution was cooled to room temperature, stirred for 1-2 hours, and filtered.

[3] = 160° C. for 2 hours
Protocol: The powder 3 # prepared in Example 1 was placed at 160° C. for 2 hours, and the changes in appearance and weight loss thereof were recorded.

SMILES	Appearance observed [1]	Angle of repose [1]	fluidity [1]	average particle size D50 [2]	changes in appearance [3]	weight loss [3]
COc1cc2c(cc1OC)C(=O)C(CC1CCN(Cc3ccccc3)CC1)C2.COc1cc2c(cc1OC)C(=O)C(CC1CCN(Cc3ccccc3)CC1)C2.O=C(O)c1cc2ccccc2c(Cc2c(O)c(C(=O)O)cc3ccccc23)c1O [Powder 1#, donepezil semi pamoate]	Homogeneous solid particles	28 ± 4 °	certain fluidity	90 ± 17 µm		
COc1cc2c(cc1OC)C(=O)C(CC1CCN(Cc3ccccc3)CC1)C2.COc1cc2c(cc1OC)C(=O)C(CC1CCN(Cc3ccccc3)CC1)C2.O=C(O)c1cc2ccccc2c(Cc2c(O)c(C(=O)O)cc3ccccc23)c1O [Powder 2#, donepezil semi pamoate]	Homogeneous solid particles	35 ± 3 °	certain fluidity	42 ± 10 µm		
COc1cc2c(cc1OC)C(=O)C(CC1CCN(Cc3ccccc3)CC1)C2.COc1cc2c(cc1OC)C(=O)C(CC1CCN(Cc3ccccc3)CC1)C2.O=C(O)c1cc2ccccc2c(Cc2c(O)c(C(=O)O)cc3ccccc23)c1O [Powder 3#, donepezil semi pamoate]	Homogeneous solid particles	42 ± 1 °	certain fluidity	13 ± 2 µm	gradually changed from light yellow to bright brown, and finally coagulated and melted	about 5.14%
COc1cc2c(cc1OC)C(=O)C(CC1CCN(Cc3ccccc3)CC1)C2.COc1cc2c(cc1OC)C(=O)C(CC1CCN(Cc3ccccc3)CC1)C2.O=C(O)c1cc2ccccc2c(Cc2c(O)c(C(=O)O)cc3ccccc23)c1O [Powder 4#, donepezil semi pamoate]	Homogeneous solid particles	38 ± 3 °	certain fluidity	3 ± 1 µm		
COc1cc2c(cc1OC)C(=O)C(CC1CCN(Cc3ccccc3)CC1)C2.COc1cc2c(cc1OC)C(=O)C(CC1CCN(Cc3ccccc3)CC1)C2.O=C(O)c1cc2ccccc2c(Cc2c(O)c(C(=O)O)cc3ccccc23)c1O [Powder 5#, donepezil semi pamoate]	Obvious static electricity,	50 ± 4 °	poor fluidity	0.9 ± 0.4 µm		
